IC50 data for 41 compounds are collected here from patent publication US20130184222A1, “[…] ACTIVE COMPOSITIONS AND THEIR METHODS OF USE” (AGIOS PHARMACEUTICALS, INC, priority 2010, published 2013).

The subject of one test is U87MG cells. The experiment in a line: Cellular assay: inhibition of 2-HG production in U87MG cells (LC-MS, 48 hours). The class given is cell-based. As to conditions: Homo sapiens, U-87 MG, 2-HG in media by LC-MS. The method, boiled down: (§1)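 HT1080 or U87MG cells (5000/well, DMEM + 10% FBS) seeded overnight, then exposed to compound (0.2% DMSO final) for 48 h; medium 2-HG measured by LC-MS. Viability read by CellTiter-Glo luminescence at 72 h.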

Another test has as its system HT1080 cells. The test can be described thus: Cellular assay: inhibition of 2-HG production in HT1080 cells (LC-MS, 48 hours). The class given is cell-based. As to conditions: Homo sapiens, HT-1080, 2-HG in media by LC-MS. The essentials:
as §1

The next test addresses IDH1 R132H (Homo sapiens, UniProt O75874, R132H). The experiment in a line: In vitro assay for IDH1 R132H inhibitors (NADPH/aKG, resazurin detection). In kind it is biochemical. As to conditions: Table 4B; 0.2 μg/ml IDH1 R132H, 50 minutes at room temperature; read-out: IC50, IDH1 R132H Inhibition. The method, boiled down: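 Reaction ran 50 min at room temperature in Tris pH 7.5 buffer with 150 mM NaCl, 10 mM MgCl2 and 0.03% BSA. Mix concentrations were 0.2 μg/ml mutant enzyme, 8 uM NADPH and 2 mM aKG. Detection added 30 μM resazurin, with resorufin fluorescence (Ex544/Em590) measured 5 min later.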
For orientation: The colour change of resazurin is a common sign of viable cells or microbes.

By IC50 is commonly meant the concentration at which inhibition is half-maximal.

Chain of IDH1 R132H (O75874 whole entry R132H): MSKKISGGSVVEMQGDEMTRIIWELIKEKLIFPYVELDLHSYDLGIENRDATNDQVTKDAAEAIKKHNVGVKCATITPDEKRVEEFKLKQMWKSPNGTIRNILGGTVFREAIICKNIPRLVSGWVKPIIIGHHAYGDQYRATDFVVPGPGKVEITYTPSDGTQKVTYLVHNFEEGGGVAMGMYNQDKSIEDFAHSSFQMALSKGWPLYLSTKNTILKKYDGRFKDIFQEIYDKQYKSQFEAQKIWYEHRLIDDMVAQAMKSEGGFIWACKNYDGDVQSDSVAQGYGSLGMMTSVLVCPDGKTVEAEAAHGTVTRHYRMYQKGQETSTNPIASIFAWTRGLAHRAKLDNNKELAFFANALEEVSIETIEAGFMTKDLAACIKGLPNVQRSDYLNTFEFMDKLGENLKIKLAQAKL

Turning to `Cc1ccccc1C(C(=O)NC1CCCCC1)N(C(=O)CO[C@H]1CCOC1)c1cccc(F)c1` (stereo partly drawn) [Compound 251], the IC50 is 250 to 1000 nM with U87MG cells, 250 to 1000 nM in the test with HT1080 cells and 100 to 1000 nM on IDH1 R132H.
Turning to `Cc1ccccc1C(C(=O)NC1CCCCC1)N(C(=O)Cn1ccc2ncccc21)c1cccc(F)c1` (stereo not drawn) [Compound 252], the IC50 was 250 to 1000 nM in the test on U87MG cells, 1000 to 5000 nM in the test on HT1080 cells and 100 to 1000 nM on IDH1 R132H.
For the compound `Cc1ccccc1C(C(=O)NC1CCCCC1)N(C(=O)CNc1ccc(F)cn1)c1cccc(F)c1` (stereo not drawn) [Compound 253], the 50% inhibitory concentration (IC50) was 250 to 1000 nM in the test on U87MG cells, at most 250 nM in the test on HT1080 cells and at most 100 nM on IDH1 R132H.
On the same counts, the results for `Cc1ccccc1C(C(=O)NC1CCCCC1)N(C(=O)CNCc1cnccn1)c1cccc(F)c1` (stereo not drawn) [Compound 254] are 1000 to 5000 nM, 1000 to 5000 nM and 100 to 1000 nM.
For `Cc1ccccc1C(C(=O)NC1CCCCC1)N(C(=O)Cn1cnc2ccccc21)c1ccn(C)n1` (stereo not drawn) [Compound 255], in that order: 250 to 1000 nM, at most 250 nM and 100 to 1000 nM.
On the same counts, the results for `Cc1ccccc1C(C(=O)NC1CCCCC1)N(C(=O)CNCc1ccn(C)n1)c1cccc(F)c1` (stereo not drawn) [Compound 256] are 1000 to 5000 nM, 250 to 1000 nM and 100 to 1000 nM.
Take `Cc1ccccc1C(C(=O)NC1CCCCC1)N(C(=O)CNCc1nccs1)c1cccc(F)c1` (stereo not drawn) [Compound 257]: the concentration for half-maximal inhibition (IC50) is 250 to 1000 nM with U87MG cells, 250 to 1000 nM with HT1080 cells and 100 to 1000 nM at IDH1 R132H.
`Cc1ccccc1C(C(=O)NC1CCCCC1)N(C(=O)CNc1ccc(S(C)(=O)=O)cc1)c1cccc(F)c1` (stereo not drawn) [Compound 258]: the IC50 in the test with U87MG cells lay in the range of 250 to 1000 nM; with HT1080 cells it was 250 to 1000 nM; on IDH1 R132H, 100 to 1000 nM.
Turning to `Cc1ccccc1C(C(=O)NC1CCCCC1)N(C(=O)COC1CCOCC1)c1cccc(F)c1` (stereo not drawn) [Compound 259], the IC50 lay in the range of 250 to 1000 nM in the test on U87MG cells, 250 to 1000 nM with HT1080 cells and 100 to 1000 nM at IDH1 R132H.
As for `Cc1ccccc1C(C(=O)NC1CCCCC1)N(C(=O)COc1ccc(F)cn1)c1cccc(F)c1` (stereo not drawn) [Compound 260], the IC50 with U87MG cells is 250 to 1000 nM; with HT1080 cells it was at most 250 nM; at IDH1 R132H it was at most 100 nM.
Consider `Cc1ccccc1C(C(=O)NC1CCCCC1)N(C(=O)Cc1c[nH]c2ccncc12)c1cccc(F)c1` (stereo not drawn) [Compound 261], for which the results for the half-maximal inhibitory concentration (IC50) in the test with U87MG cells, with HT1080 cells and at IDH1 R132H were 1000 to 5000 nM, 250 to 1000 nM and 100 to 1000 nM, respectively.
For `Cc1ccccc1C(C(=O)NC1CCCCC1)N(C(=O)C(=O)c1c[nH]c2ccccc12)c1cccc(F)c1` (stereo not drawn) [Compound 262], in that order: 1000 to 5000 nM, 1000 to 5000 nM and 100 to 1000 nM.
For `Cc1ccccc1C(C(=O)NC1CCCCC1)N(C(=O)Cc1ccc(OC(=O)N(C)C)cc1)c1cccc(F)c1` (stereo not drawn) [Compound 263], in that order: 250 to 1000 nM, at most 250 nM and 100 to 1000 nM.
For `Cc1ccccc1C(C(=O)NC1CCCCC1)N(C(=O)Cc1ccc(OC(=O)N2CCOCC2)cc1)c1cccc(F)c1` (stereo not drawn) [Compound 264], in that order: 250 to 1000 nM, 250 to 1000 nM and 100 to 1000 nM.
Regarding `Cc1ccccc1C(C(=O)NC1CCCCC1)N(C(=O)CNc1cccc(C#N)c1)c1cccc(F)c1` (stereo not drawn) [Compound 265], the results for the half-inhibitory concentration (IC50) with U87MG cells, in the test on HT1080 cells and on IDH1 R132H were 250 to 1000 nM, at most 250 nM and at most 100 nM, respectively.
For `Cc1ccccc1C(C(=O)NC1CCCCC1)N(C(=O)Cn1cnc2cnccc21)c1cccc(F)c1` (stereo not drawn) [Compound 266], in that order: over 5000 nM, over 5000 nM and 100 to 1000 nM.
For `Cc1ccccc1C(C(=O)NC1CCCCC1)N(C(=O)CNCc1cscn1)c1cccc(F)c1` (stereo not drawn) [Compound 267], in that order: 1000 to 5000 nM, 250 to 1000 nM and 100 to 1000 nM.
For `Cc1ccccc1C(C(=O)NC1CCCCC1)N(C(=O)Cn1ccnc1C)c1cccc(Br)c1` (stereo not drawn) [Compound 268], in that order: at most 250 nM, 1000 to 5000 nM and 100 to 1000 nM.
`Cc1ccccc1C(C(=O)NC1CCCCC1)N(C(=O)C(=O)c1c[nH]c2ccncc12)c1cccc(F)c1` (stereo not drawn) [Compound 269]: the IC50 in the test with U87MG cells lay in the range of 1000 to 5000 nM; with HT1080 cells, 1000 to 5000 nM; at IDH1 R132H, 100 to 1000 nM.
For `Cc1ccccc1C(C(=O)NC1CCCCC1)N(C(=O)C(=O)NCc1ccncc1)c1cccc(F)c1` (stereo not drawn) [Compound 270], the IC50 in the test on U87MG cells was 1000 to 5000 nM; in the test on HT1080 cells, 1000 to 5000 nM; on IDH1 R132H, 100 to 1000 nM.
On to `Cc1ccccc1C(C(=O)NC1CCCCC1)N(C(=O)Cn1ccc2ccccc21)c1cccc(F)c1` (stereo not drawn) [Compound 271], for which the IC50 in the test on U87MG cells is 250 to 1000 nM; in the test with HT1080 cells, at most 250 nM; at IDH1 R132H, at most 100 nM.
On the same counts, the results for `Cc1ccccc1C(C(=O)NC1CCCCC1)N(C(=O)CNc1cccnc1F)c1cccc(F)c1` (stereo not drawn) [Compound 272] are at most 250 nM, at most 250 nM and at most 100 nM.
`Cc1ccccc1C(C(=O)NC1CCCCC1)N(C(=O)COc1cccnn1)c1cccc(F)c1` (stereo not drawn) [Compound 273]: the figures for the IC50 in the test with U87MG cells, in the test on HT1080 cells and on IDH1 R132H were 250 to 1000 nM, 250 to 1000 nM and 100 to 1000 nM, respectively.
As to `Cc1ccccc1C(C(=O)NC1CCCCC1)N(C(=O)Cc1c[nH]c2cccnc12)c1cccc(F)c1` (stereo not drawn) [Compound 275], the figures for the IC50 in the test with U87MG cells, with HT1080 cells and on IDH1 R132H were 250 to 1000 nM, at most 250 nM and at most 100 nM, respectively.
For `Cc1ccccc1C(C(=O)NC1CCCCC1)N(C(=O)Cc1c[nH]c2cnccc12)c1cccc(F)c1` (stereo not drawn) [Compound 276], in that order: at most 250 nM, at most 250 nM and at most 100 nM.
On the same counts, the results for `Cc1ccccc1C(C(=O)NC1CCCCC1)N(C(=O)CNc1ccccc1C#N)c1cccc(F)c1` (stereo not drawn) [Compound 278] are at most 250 nM, at most 250 nM and 100 to 1000 nM.
In the case of `Cc1ccccc1C(C(=O)NC1CCCCC1)N(C(=O)CNc1ccc(C(F)(F)F)nc1)c1cccc(F)c1` (stereo not drawn) [Compound 279], the IC50 was over 5000 nM with U87MG cells, 1000 to 5000 nM with HT1080 cells and 100 to 1000 nM on IDH1 R132H.
Regarding `Cc1ccccc1C(C(=O)NC1CCCCC1)N(C(=O)CNc1ccnc(F)c1)c1cccc(F)c1` (stereo not drawn) [Compound 280], the half-inhibitory concentration (IC50) was in the range of 1000 to 5000 nM in the test with U87MG cells, 1000 to 5000 nM in the test on HT1080 cells and 100 to 1000 nM at IDH1 R132H.
`Cc1ccccc1C(C(=O)NC1CCCCC1)N(C(=O)COCc1ccccn1)c1cccc(F)c1` (stereo not drawn) [Compound 281]: the IC50 in the test on U87MG cells is 250 to 1000 nM; in the test on HT1080 cells, at most 250 nM; on IDH1 R132H it was 100 to 1000 nM.
On the same counts, the results for `Cc1ccccc1C(C(=O)NC1CCCCC1)N(C(=O)COCc1cnccn1)c1cccc(F)c1` (stereo not drawn) [Compound 282] are over 5000 nM, 250 to 1000 nM and 100 to 1000 nM.
For `Cc1ccccc1C(C(=O)NC1CCCCC1)N(C(=O)C(C)c1c[nH]c2ccccc12)c1cccc(F)c1` (stereo not drawn) [Compound 283], in that order: 250 to 1000 nM, 250 to 1000 nM and 100 to 1000 nM.
With `Cc1ccccc1C(C(=O)NC1CCCCC1)N(C(=O)C(=O)c1nccn1C)c1cccc(F)c1` (stereo not drawn) [Compound 284], the values for the IC50 with U87MG cells, in the test with HT1080 cells and on IDH1 R132H were 1000 to 5000 nM, 250 to 1000 nM and 100 to 1000 nM, respectively.
With `Cc1ccccc1C(C(=O)NC1CCCCC1)N(C(=O)Cn1ccnc1C)c1cccc(-c2ccccc2)c1` (stereo not drawn) [Compound 286], the results for the IC50 in the test on U87MG cells, in the test with HT1080 cells and at IDH1 R132H were at most 250 nM, 250 to 1000 nM and 100 to 1000 nM, respectively.
As to `Cc1ccccc1C(C(=O)NC1CCCCC1)N(C(=O)CNc1cc(F)ccn1)c1cccc(F)c1` (stereo not drawn) [Compound 287], the IC50 in the test with U87MG cells was at most 250 nM; in the test with HT1080 cells, at most 250 nM; on IDH1 R132H it was at most 100 nM.
In the case of `Cc1ccccc1C(C(=O)NC1CCCCC1)N(C(=O)Cc1cccnc1)c1cccc(F)c1` (stereo not drawn) [Compound 288], the 50% inhibitory concentration (IC50) with U87MG cells is 1000 to 5000 nM; in the test on HT1080 cells it was 250 to 1000 nM; at IDH1 R132H, at most 100 nM.
On the same counts, the results for `Cc1ccccc1C(C(=O)NC1CCCCC1)N(C(=O)Cc1n[nH]c2ccccc12)c1cccc(F)c1` (stereo not drawn) [Compound 289] are at most 250 nM, at most 250 nM and at most 100 nM.
On the same counts, the results for `Cc1ccccc1C(C(=O)NC1CCCCC1)N(C(=O)CNc1ccc(-c2nnco2)cc1)c1cccc(F)c1` (stereo not drawn) [Compound 290] are 250 to 1000 nM, at most 250 nM and at most 100 nM.
With `Cc1ccccc1C(C(=O)NC1CCCCC1)N(C(=O)CNc1ccc(-c2ncon2)cc1)c1cccc(F)c1` (stereo not drawn) [Compound 291], the IC50 in the test with U87MG cells is 250 to 1000 nM; in the test with HT1080 cells, at most 250 nM; on IDH1 R132H, at most 100 nM.
On the same counts, the results for `Cc1ccccc1C(C(=O)NC1CCCCC1)N(C(=O)Cn1ccnc1C)c1cccc(-c2cccc(OC(F)(F)F)c2)c1` (stereo not drawn) [Compound 292] are 1000 to 5000 nM, 1000 to 5000 nM and 100 to 1000 nM.
On the same counts, the results for `COC(=O)N1CCCCC1C(=O)N(c1cccc(F)c1)C(C(=O)NC1CCCCC1)c1ccccc1C` (stereo not drawn) [Compound 293] are at most 250 nM, 250 to 1000 nM and at most 100 nM.
On the same counts, the results for `Cc1ccccc1C(C(=O)NC1CCCCC1)N(C(=O)Cn1cncn1)c1cccc(F)c1` (stereo not drawn) [Compound 294] are 250 to 1000 nM, 1000 to 5000 nM and 100 to 1000 nM.
